# Test results published in paper PMC6982022 (International Journal of Molecular Sciences, 2019).
# “Also recorded” adds a separate entry of the source.
# Assays:
# [1] = test system: C57BL6J mice; assay: Epididymal sperm acrosome morphology (FITC-PSA staining) after 35 days oral dosing; format: in vivo, mouse; conditions: for Sperm morphology Abnormal, average (%) / Sperm morphology Normal, average (%): six mice/group
# Protocol: Groups of six mice, each, were used for three different doses of NB-DNJ or NB-DGJ formulated in milliQ water at 50 mg/kg, 25 mg/kg and 15 mg/kg, respectively. Control groups were given an equivalent volume of water. Animals were given compound or control once daily for 35 consecutive days via oral gavage using animal feeding needles (Biomedical Needles, Popper, NY, USA). Body weight was noted every week for all treatment groups. Mice were euthanized at the end of a 35 days dosing regimen using CO2 asphyxia followed by cervical dislocation. Testes were harvested, weighed and stored in Bouin’s fixative for 48 h, then sliced into two halves, and stored in fresh Bouin’s for another 24 h. The tissue slices were then rinsed in 70% ethanol and processed and stained for histology using a standard protocol for Hematoxylin and eosin staining. Spermatids with elongated and abnormally shaped heads were counted per 20 fields and average number calculated for 6 mice/group.
# For sperm retrieval, epididymis was removed from the animal and placed in Petri dish. One mL of capacitation buffer (Capacitation buffer consisted of 110 mM NaCl, 2.68 mM KCl, 0.36 mM NaH2PO4, 25 mM NaHCO3, 0.49 mM MgCl2, 2.40 mM CaCl2, 25 mM HEPES, 5.50 mM Glucose, 1 mM Pyruvic acid, pH 7.4; Tash and Bracho, 1998) at room temperature was added to the dish. Using forceps, the caput of the epididymis was held in place and the cauda sliced repeatedly with a razor blade. The spermatozoa were allowed to disperse for 15 min with gentle swirling intermittently. A 100 µL aliquot of the sperm suspension was dropped onto a standard glass microscope slide (Fisherbrand superfrost microscope slides 25 × 75 × 1.0 mm)) and smeared with side of pipette tip. The slides were air dried flat for 1 h at room temperature. The sperm smear was fixed in methanol for 2 min. The sperm smear was than stained using FITC-PSA (Fluorescein isothiocyanate Pisum Sativum Agglutinin; Vector Laboratories, Burlingame, CA) was diluted 1:7000 in PBS containing 1:10,000 DAPI dihydrochloride, FluoroPure™ grade, Invitrogen) (≥98% pure) to make the stock solution. To each slide, 100 µL of FITC-PSA was added and spread out with edge of pipette tip to cover the dried sperm smear. The slides were incubated at 37 °C for 10 min, and then washed with 5 changes of PBS for 5 min each. The slides were air-dried and mounted with 20 µL Vectashield mounting medium for fluorescence (Vector Laboratories, Burlingame, CA, USA) and observed. Slides were viewed on a Nikon IX-81 microscope under a 40× objective using FITC and DAPI filter to visualize acrosome morphology. The phase contrast images were also collected at the same magnification to compare morphological details.
# [2] = test system: male CD rats; assay: Rat mating trial (fertility); format: in vivo; conditions: for Conceptus, mean abnormal / Fertile/Mated / Conceptus, mean normal: 150 mg/kg/day oral days 0-34
# Protocol: Eighteen adult male CD rats were divided into three groups of six rats each. One group of six CD rats was treated with vehicle (distilled water containing 0.9% benzyl alcohol) via oral gavage (5 mL/kg/day), and the second group (6 rats) was treated with NB-DGJ (in distilled water containing 0.9% benzyl alcohol) via oral gavage at 150 mg/kg/day (in approximately 5 mL/kg of water) daily for 35 consecutive days. The third group (6 rats) was treated with 15 mg/kg NB-DNJ in distilled water containing 0.9% benzyl alcohol) via oral gavage (in approximately 5 mL/kg of water) daily for 35 consecutive days (Figure S5).
# (§1) Rats were weighed on day 0 (first day of dosing) and weekly thereafter. Dosages were adjusted based on the most recent body weight. Males were cohabited with untreated females (one male per two females) weekly at weeks 1 through 9 [38, 39]. Females were necropsied seven days after separation from males to determine the numbers of implantation sites. Individual male rats were bled from the tail vein at weeks 0, 1, 4, and 7 and serum was harvested by centrifugation. At week 11, the male rats were weighed, anesthetized, and exsanguinated. Sera were analyzed for inhibin B by ELISA (enzyme-linked immunosorbent assay), and rat follicle stimulating hormone (rFSH) and testosterone by radioimmunoassay. Testes, epididymides, ventral prostates, and seminal vesicles were excised and weighed. The left testis was homogenized, and spermatid head counts obtained.
# (§2) Statistical analysis using the Student’s t-test was performed on body weights, paired testes weights, ventral prostrate weights, seminal vesicle weights, paired epididymal weights, spermatid head counts, percent motile and normal epididymal sperm. We used analysis of variance (ANOVA) for serum inhibin B, rFSH, and testosterone, since these measurements were repeated throughout the study period. The effect of NB-DNJ at 15 mg/kg/day dose in the rat model was studied following the same protocol as that for NB-DGJ.
# [3] = test system: male CD rats; assay: Serum hormone levels during mating trial; format: in vivo, rat; conditions: 150 mg/kg/day; weeks 0, 1, 4 and 7; ANOVA
# From the text: as §1, §2
# [4] = test system: C57BL/6 mice; conditions: cited from earlier work
smiles,measurement,setting,value
"CCCCN1C[C@H](O)[C@@H](O)[C@@H](O)[C@H]1CO [NB-DGJ, N-butyldeoxygalactonojirimycin]","Sperm morphology Abnormal, average (%)",[1]; 15 mg/kg oral daily,51.59%
same,"Sperm morphology Normal, average (%)",[1]; 15 mg/kg oral daily,48.4%
same,"Sperm morphology Abnormal, average (%)",[1]; 25 mg/kg oral daily,62.05%
same,"Sperm morphology Normal, average (%)",[1]; 25 mg/kg oral daily,37.85%
same,"Sperm morphology Abnormal, average (%)",[1]; 50 mg/kg oral daily,88.21%
same,"Sperm morphology Normal, average (%)",[1]; 50 mg/kg oral daily,11.78%
same,Sperm acrosome morphology (in words),"[1]; 15, 25 and 50 mg/kg oral daily",dose-dependent increase in the number of abnormal spermatozoa
same,Treatment time after which fertility was blocked,[2]; 150 mg/kg/day oral,35 days
same,"Conceptus, mean abnormal",[2]; week of study 1,0.3
same,Fertile/Mated,[2]; week of study 1,6/6
same,"Conceptus, mean normal","[2]; week of study 1, both females per male",14
same,"Conceptus, mean abnormal",[2]; week of study 2,0.1
same,"Conceptus, mean normal",[2]; week of study 2,6
same,Fertile/Mated,[2]; week of study 2,6/6
same,"Conceptus, mean abnormal",[2]; week of study 3,0
same,"Conceptus, mean normal",[2]; week of study 3,1
same,Fertile/Mated,[2]; week of study 3,3/6
same,"Conceptus, mean abnormal",[2]; week of study 4,0/0
same,"Conceptus, mean normal",[2]; week of study 4,0/0
same,Fertile/Mated,[2]; week of study 4,0/6
same,"Conceptus, mean abnormal",[2]; week of study 5,2
same,Fertile/Mated,[2]; week of study 5,6/6
same,"Conceptus, mean normal",[2]; week of study 5 (after termination of dosing),10
same,"Conceptus, mean abnormal",[2]; week of study 6,0.3
same,"Conceptus, mean normal",[2]; week of study 6,13
same,Fertile/Mated,[2]; week of study 6,6/6
same,"Conceptus, mean abnormal",[2]; week of study 7,0.3
same,"Conceptus, mean normal",[2]; week of study 7,13
same,Fertile/Mated,[2]; week of study 7,6/6
same,"Conceptus, mean abnormal",[2]; week of study 8,0.3
same,"Conceptus, mean normal",[2]; week of study 8,14
same,Fertile/Mated,[2]; week of study 8,6/6
same,"Conceptus, mean abnormal",[2]; week of study 9,0.5
same,"Conceptus, mean normal",[2]; week of study 9,13
same,Fertile/Mated,[2]; week of study 9,6/6
same,Return of fertility after termination of dosing,[2]; 150 mg/kg/day oral for 35 days,within one week
same,Reduction of numbers of normal conceptuses,"[2]; 150 mg/kg/day oral, second week",50%
same,Treated rats infertile,"[2]; 150 mg/kg/day oral, week four",100%
same,Treated rats rendered infertile,"[2]; 150 mg/kg/day oral, week three",50%
same,Effect on fertility (in words),"[2]; 150 mg/kg/day, daily single oral dose, 35 days",induced reversible infertility; also recorded: caused reversible infertility
same,Adverse effects in treated animals,"[2]; daily dose of 150 mg/kg, 35 days",lack of adverse effects
same,Serum inhibin B versus control,[3],No significant differences
same,Serum rFSH versus control,[3],No significant differences
same,Serum testosterone versus control,[3],No significant differences
same,Effect on fertility (in words),"[4]; C57BL/6J male mice, 150 mg/kg",reversible infertility
same,Time for fertility to resume,[4]; C57BL/6J mice,approximately three weeks
same,"Testicular histology, spermiogenesis (in words)",[4]; dose equivalent to 1200 mg/kg of NB-DNJ,disrupts spermiogenesis
